The test system of assay [1] is HKx31 (H3N2). Type of assay: in vivo, mice. Also on record: key to PMN activity score / Viral titre activity score / BAL IL-6 activity score: 0: inactive; 1: less active than the peptide of SEQ ID NO:38; 2: comparable or more active than the peptide of SEQ ID NO:38. As to conditions: for IL-6 levels in the BAL fluid / viral titres: 10 mg/kg single dose.
For assay [2], the system named is Chung rats. Kind of assay: In vivo model of neuropathic pain (Chung model, Example 4). Also on record: species or system rat. As to conditions: oral, subcutaneous and/or intramuscular administration. The source says: This study was undertaken to assess the analgesic effect of the peptides described herein on neuropathic pain in vivo using a nerve constriction model in Chung rats. Briefly, adult male Sprague-Dawley rats, 8-9 weeks old, weighing 220-250 g at the time of surgery, were purchased from Charles River UK Ltd.
The animals were housed in groups of 4 in an air-conditioned room on a 12-hour light/dark cycle. Food and water were available ad libitum. They were allowed to acclimatise to the experimental environment for three days by leaving them on a raised metal mesh for at least 40 min. The baseline paw withdrawal threshold (PWT) was examined using a series of graduated von Frey hairs for 3 consecutive days before surgery and re-assessed on the 6th to 8th day after surgery and on the 12th to 14th day after surgery before drug dosing.
Each rat was anaesthetized with 5% isoflurane mixed with oxygen (2 L per min) followed by an intramuscular (i.m.) injection of ketamine 90 mg/kg plus xylazine 10 mg/kg. The back was shaved and sterilized with povidone-iodine. The animal was placed in a prone position and a para-medial incision was made on the skin covering the L4-6 level. The L5 spinal nerve was carefully isolated and tightly ligated with 6/0 silk suture. The wound was then closed in layers after a complete hemostasis. A single dose of antibiotics (Amoxipen, 15 mg/rat, i.p.) was routinely given for prevention of infection after surgery. The animals were placed in a temperature-controlled recovery chamber until fully awake before being returned to their home cages.
The vehicle (1% DMSO in PBS) or peptide was administrated intramuscularly (i.m.) into the leg of the side contralateral to the site of injury. Dosing was carried out by a second experimenter. […]
Each group had 8 animals. […] The lowest amount of force required to induce reliable responses (positive in 3 out of 5 trials) was recorded as the value of PWT.
The drug test was carried out on the 12th to 14th day after surgery. PWT were assessed before, 1, 2 and 4 hours following drug or vehicle administration. […]

Assay [3] relates to A549 cells. Kind of assay: A549 proliferation + stress assay (restoration of viability of Taxol-treated cells, CellTiter-Glo). Type of assay: cell-based, human. Also on record: key to Estimated Activity in A549 proliferation + stress assay: Inactive: no activity up to 100 μM; WEAK: some or variable restoration of cell viability at 50-100 μM; MODERATE: moderate dose-dependent restoration of cell viability at >25 μM; STRONG: clear dose-dependent restoration of cell viability from 1-5 μM upwards. As to conditions: for Estimated Activity in A549 proliferation + stress assay: 350 μM Taxol, 16 hours, peptide 1-100 μM; for restoration of A549 viability: Taxol-treated A549 cells. How it is done:
An assay was developed that involves stressing cells with a dose of the chemotherapeutic agent, Taxol, that causes a 50% inhibition of cell viability when compared to untreated cells. Peptides were then added to the cell cultures at increasing concentrations to assess their ability to restore the viability of the Taxol-treated cells.
Briefly, A549 cells were cultured in opaque-walled multiwell plates with 50000 A549 cells/well in culture medium (DMEM medium ref 11960-044 Thermoscientific, +10% FBS ref 10270-106 Gibco, Thermoscientific, +1% Na pyruvate ref S8636-100 ML, Sigma, +1%, Glutamax ref35050061, Thermoscientific, +1% Penicillin-Streptomycin, ref 11074440001, Sigma) 100 μl per well for 96-well plates. Control wells containing medium without cells were used to obtain a value for background luminescence. Cells were incubated at 37° C. in 5% CO2 overnight.
100 μL of medium+DMSO+peptides or medium+Taxol+peptides (at the different concentrations) were added to each well and incubated for 16 hours at 37° C. 5% CO2.
Cell morphology, viability and confluency were assessed by phase contrast microscopy. The CellTiter-Glo® Luminescent Cell Viability Assay (G7571, Promega—a homogeneous method to determine the number of viable cells in culture based on quantitation of the ATP present) was then used to quantify the number of metabolically active cells, according to the manufacturer's instructions. 100 μl volume of CellTiter-Glo® Reagent was added to the 100 μL volume of cell culture medium present in each well, Contents were mixed for 2 minutes on an orbital shaker to induce cell lysis and after incubating the plates at room temperature for 10 minutes to stabilize luminescent signal luminescence was recorded with an integration time of 0.5 seconds using a CLARIOstar multi well luminometer (BMG Labtech)

In assay [4] the target is recombinant LanCL1 (rLanCL1) (Homo sapiens, UniProt O43813). The experiment in a line: biochemical. Type of assay: binding. The protocol:
Dry pellets of LANCL1 previously photolabelled with photoprobes in the presence of different peptides or PBS/DMSO vehicle were resuspended in 30 μL SDS loading buffer (Bio Rad's XT Sample Buffer containing 2.5% v/v 2-mercaptoethanol) and heated (60° C., 30 min). Proteins were resolved using SDS-PAGE (4-15% Criterion™ TGX Stain-Free™ Protein Gel, Bio Rad) and analyzed by in-gel fluorescence scanning using a ChemiDoc™ MP Imaging System (Bio Rad) with a green LED light as an excitation source and a BP600/20 nm emission filter. After in-gel fluorescence scanning, gels were stained with Coomassie blue to ensure the same amount of protein sample was loaded in each lane and imaged with the ChemiDoc™ MP Imaging System. Photoincorporation of each photoprobe in LANCL1 was quantitatively assessed by measuring the fluorescent intensity of the corresponding gel band using Image lab software (Bio Rad) and normalizing this value against the intensity value of LANCL1 gel band stained with Coomassie blue to control for loading differences.
(SEQ ID NO:22) from recombinant LanCL1 (rLanCL1).

Like-named read-outs stand apart in the source and are kept apart here. Positions of bridges follow the written chain, without caps; N, C: chain ends. Residues, ends and D or L forms follow the SMILES beside them. No end group written: not given here. Bounds are passed on as bounds.

The values below come from patent US12492223B2, “Peptide compositions capable of binding lanthionine synthetase C-like protein (LanCl) and uses thereof” (priority 2021, dated 2025).

Chain of recombinant LanCL1 (rLanCL1) (O43813 whole entry, species assumed): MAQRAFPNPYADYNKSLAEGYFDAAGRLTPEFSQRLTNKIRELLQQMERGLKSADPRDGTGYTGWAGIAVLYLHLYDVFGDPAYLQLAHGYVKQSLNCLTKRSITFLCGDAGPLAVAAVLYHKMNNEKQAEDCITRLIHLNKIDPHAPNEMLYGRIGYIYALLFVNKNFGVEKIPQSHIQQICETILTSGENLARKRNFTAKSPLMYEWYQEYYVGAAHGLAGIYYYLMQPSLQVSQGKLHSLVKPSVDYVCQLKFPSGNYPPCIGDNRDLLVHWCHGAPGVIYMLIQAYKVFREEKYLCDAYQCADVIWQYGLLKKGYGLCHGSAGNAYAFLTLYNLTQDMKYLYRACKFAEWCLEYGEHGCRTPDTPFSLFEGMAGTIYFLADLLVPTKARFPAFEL

On to “2 (CRSVEGSCGF; disulfide 1-8) [compound 2]”, for which the PMN activity score in assay [1] (mouse, in vivo, 10 mg/kg) is listed as 2. Also, in assay [1] (single 10 mg/kg dose), the “reducing the PMN infiltrate in BAL fluid, compared with the peptide of SEQ ID NO:38” value (“reducing the PMN infiltrate … of SEQ ID NO:38” for short) is “as effective”. Besides, the “neuropathic pain in the Chung model” value in assay [2] is on record as “reduced neuropathic pain”.
As to “8 (CSGRVSECGF; disulfide 1-8) [compound 8]”, the “Estimated Activity in A549 proliferation + stress assay” value (from here on “Estimated Activity”) in assay [3] was “Inactive”.
Consider 9 (RSVEGS) [compound 9], for which, in assay [3], the “Estimated Activity” value is recorded as “STRONG (clear dose-dependent restoration of cell viability from 1-5 μM upwards)” and the “restoration of A549 viability” value is “restored the Taxol-induced loss of cell viability”. Further, the “IL-6 levels in the BAL fluid” value in assay [1] is recorded as “as effective”. The viral titres result in assay [1] (day 3) was “effective”. In assay [1] (mouse, in vivo, 10 mg/kg), the “BAL IL-6 activity score” value amounted to 2, the PMN activity score is reported as 2 and the “Viral titre activity score” value was 2. Also, the “reducing the PMN infiltrate … of SEQ ID NO:38” value in assay [1] (single 10 mg/kg dose) is “as effective”.
On to “10 (SCRSRPVESSC; disulfide 2-11) [compound 10]”, for which, in assay [3], the “Estimated Activity” value was “STRONG (clear dose-dependent restoration of cell viability from 1-5 μM upwards)” and the “restoration of A549 viability” value is “restore A549 viability”. The “neuropathic pain in the Chung model” value in assay [2] is reported as “reduced neuropathic pain”.
Consider 11 (SCRSRPVESSC) [compound 11], for which, in assay [3], the “Estimated Activity” value is listed as “Inactive” and the “restoration of A549 viability” value is given as “did not”.
Take 42 (KALPRS) [compound 42]: in assay [3], the “Estimated Activity” value was “STRONG (clear dose-dependent restoration of cell viability from 1-5 μM upwards)” and the “restoration of A549 viability” value is reported as “partially restore A549 viability”. Further, in assay [1], the “IL-6 levels in the BAL fluid” value is given as “as effective”. Moreover, the viral titres result in assay [1] (day 3) was “effective”. Also, in assay [1] (mouse, in vivo, 10 mg/kg), the “BAL IL-6 activity score” value stood at 2, the PMN activity score is listed as 2 and the “Viral titre activity score” value worked out at 2. Besides, the “reducing the PMN infiltrate … of SEQ ID NO:38” value in assay [1] (single 10 mg/kg dose) is recorded as “as effective”.
Regarding 59 (RALNS) [compound 59], in assay [3], the “Estimated Activity” value is on record as “WEAK-MODERATE”. For the same compound, in assay [1] (mouse, in vivo, 10 mg/kg), the “BAL IL-6 activity score” value was determined as 2, the PMN activity score came out at 2 and the “Viral titre activity score” value is listed as 2.
Regarding 60 (RALN) [compound 60], in assay [3], the “Estimated Activity” value is “WEAK (some or variable restoration of cell viability at 50-100 μM)”. In addition, in assay [1] (mouse, in vivo, 10 mg/kg), the “BAL IL-6 activity score” value was found to be 2, the PMN activity score is 2 and the “Viral titre activity score” value is given as 2.
63 (ALNSS) [compound 63]: in assay [3], the “Estimated Activity” value was “MODERATE (moderate dose-dependent restoration of cell viability at >25 μM)”. In addition, the “Viral titre activity score” value in assay [1] (single 10 mg/kg dose, day 3, relative to SEQ ID NO:38) worked out at 0.
By EC50 is commonly meant the concentration at which the effect is half-maximal. As for `CC[C@H](C)[C@H](NC(=O)[C@H](CCCNC(=N)N)NC(=O)[C@H](CC(C)C)NC(=O)[C@@H](N)Cc1ccc(O)cc1)C(=O)N[C@H](C(=O)N[C@@H](CCC(N)=O)C(=O)N[C@H]1CSSC[C@@H](C(=O)NCC(=O)N[C@@H](Cc2ccccc2)C(=O)O)NC(=O)[C@H](CO)NC(=O)CNC(=O)[C@H](CCC(=O)O)NC(=O)[C@H](C(C)C)NC(=O)[C@H](CO)NC(=O)[C@H](CCCNC(=N)N)NC1=O)C(C)C` [compound 1] (H-YLRIVQCRSVEGSCGF-OH; disulfide 7-14), in assay [4], the EC50 was in the range of 50 to 100 µM.
As to `CC(C)[C@@H]1NC(=O)[C@H](CO)NC(=O)[C@H](CCCNC(=N)N)NC(=O)[C@@H](N)CSSC[C@@H](C(=O)NCC(=O)O)NC(=O)[C@H](CO)NC(=O)CNC(=O)[C@H](CCC(=O)O)NC1=O` [compound 3] (H-CRSVEGSCG-OH; disulfide 1-8; N-terminus and C-terminus assumed), in assay [4], the EC50 is roughly 150 µM. For the same compound, the “neuropathic pain in the Chung model” value in assay [2] is on record as “reduced neuropathic pain”.
With `CC(C)[C@@H]1NC(=O)[C@@H]2CCCN2C(=O)[C@H](CCCNC(=N)N)NC(=O)[C@H](CO)NC(=O)[C@H](CCCNC(=N)N)NC(=O)[C@@H](N)CSSC[C@@H](C(=O)N[C@@H](CO)C(=O)O)NC(=O)[C@H](CO)NC(=O)[C@H](CO)NC(=O)[C@H](CCC(=O)O)NC1=O` [compound 14] (H-CRSRPVESSCS-OH; disulfide 1-10; N-terminus and C-terminus assumed), in assay [4], the EC50 is roughly 100 µM. Besides, the “Estimated Activity” value in assay [3] was “STRONG (clear dose-dependent restoration of cell viability from 1-5 μM upwards)”.
In the case of `CC[C@H](C)[C@@H]1NC(=O)[C@H](CCCNC(=N)N)NC(=O)[C@@H](N)CSSC[C@@H](C(=O)O)NC(=O)[C@H](CC(N)=O)NC(=O)[C@H](CC(N)=O)NC(=O)[C@H](CC(N)=O)NC(=O)[C@H](Cc2c[nH]cn2)NC(=O)[C@H]([C@@H](C)CC)NC1=O` [compound 24] (H-CRIIHNNNC-OH; disulfide 1-9), the EC50 in assay [4] lay within 100 to 200 µM.
`CC(C)C[C@@H]1NC(=O)[C@H](C)NC(=O)[C@H](CCCNC(=N)N)NC(=O)[C@H](CCC(=O)O)NC(=O)[C@H](CC(C)C)NC(=O)[C@H](CCC(N)=O)NC(=O)[C@H](CCC(=O)O)NC(=O)[C@H](CCC(N)=O)NC(=O)[C@@H](N)CSSC[C@@H](C(=O)O)NC(=O)[C@H](CO)NC(=O)[C@H](CO)NC(=O)[C@H](CC(N)=O)NC1=O` [compound 38] (H-CQEQLERALNSSC-OH; disulfide 1-13): the EC50 in assay [4] fell in the range of 50 to 100 µM.
On the same count and under the same terms, under `CC(C)C[C@@H]1NC(=O)[C@H](C)NC(=O)[C@H](CCCNC(=N)N)NC(=O)[C@@H](N)CSSC[C@@H](C(=O)O)NC(=O)[C@H](CO)NC(=O)[C@H](CO)NC(=O)[C@H](CC(N)=O)NC1=O` [compound 40] (H-CRALNSSC-OH; disulfide 1-8) stands 50 to 100 µM; under QEQLERALNSS [compound 37], 100 to 200 µM; under RALNSS [compound 39], greater than 200 µM.
